Values after ≈ are worked out from the molar mass of the structure shown.
Tests used:
[1] = Inhibition of Mycobacterium tuberculosis DprE1 Y314A mutant expressed in Escherichia coli BL21 DE3 assessed as formation of resorufin using FPR as substrate incubated for 10 mins by Amplex Red dye microplate assay
[2] = Inhibition of Mycobacterium tuberculosis DprE1 C387A mutant expressed in Escherichia coli BL21 DE3 assessed as formation of resorufin using FPR as substrate incubated for 10 mins by Amplex Red dye microplate assay
[3] = Inhibition of Mycobacterium tuberculosis DprE1 C387S mutant expressed in Escherichia coli BL21 DE3 assessed as formation of resorufin using FPR as substrate incubated for 10 mins by Amplex Red dye microplate assay
[4] = Inhibition of Mycobacterium tuberculosis DprE1 K418A mutant expressed in Escherichia coli BL21 DE3 assessed as formation of resorufin using FPR as substrate incubated for 10 mins by Amplex Red dye microplate assay
[5] = tested on: Mycobacterium tuberculosis; assay: Antimycobacterial activity against rifampin resistant Mycobacterium tuberculosis H37Rv assessed as inhibition of bacterial growth incubated for 7 days by microplate alamar blue assay; format: functional; conditions: 168 h, time 7 day
[6] = tested on: Mycobacterium tuberculosis; assay: Antimycobacterial activity against Mycobacterium tuberculosis DprE1 C387S assessed as inhibition of bacterial growth incubated for 7 days by microplate alamar blue assay; format: functional; conditions: time 7 day
[7] = tested on: Mycobacterium tuberculosis; assay: Antimycobacterial activity against multidrug-resistant Mycobacterium tuberculosis clinical isolate HD1 assessed as inhibition of bacterial growth incubated for 7 days by microplate alamar blue assay; format: functional; conditions: Clinical isolate HD1, 168 h, time 7 day
[8] = tested on: Mycobacterium tuberculosis; assay: Antimycobacterial activity against multidrug-resistant Mycobacterium tuberculosis clinical isolate HD2 assessed as inhibition of bacterial growth incubated for 7 days by microplate alamar blue assay; format: functional; conditions: Clinical isolate HD2, 168 h, time 7 day
[9] = tested on: Mycobacterium tuberculosis; assay: Antimycobacterial activity against multidrug-resistant Mycobacterium tuberculosis clinical isolate HD3 assessed as inhibition of bacterial growth incubated for 7 days by microplate alamar blue assay; format: functional; conditions: Clinical isolate HD3, 168 h, time 7 day
[10] = tested on: Mycobacterium tuberculosis; assay: Antimycobacterial activity against multidrug-resistant Mycobacterium tuberculosis clinical isolate HD4 assessed as inhibition of bacterial growth incubated for 7 days by microplate alamar blue assay; format: functional; conditions: Clinical isolate HD4, 168 h, time 7 day
[11] = tested on: Mycobacterium tuberculosis; assay: Antimycobacterial activity against multidrug-resistant Mycobacterium tuberculosis clinical isolate HD5 assessed as inhibition of bacterial growth incubated for 7 days by microplate alamar blue assay; format: functional; conditions: Clinical isolate HD5, 168 h, time 7 day
[12] = tested on: Mycobacterium tuberculosis; assay: Antimycobacterial activity against rifampin resistant Mycobacterium tuberculosis H37Rv assessed as reduction in bacterial colony forming units at 20 times MIC concentration measured after 21 days by time kill assay; format: functional; conditions: time 21 day

SMILES | IC50 [1] | IC50 [2] | IC50 [3] | IC50 [4] | MIC [5] | MIC [6] | MIC [7] | MIC [8] | MIC [9] | MIC [10] | MIC [11] | Activity [12]
CCOC(=O)NC(=O)c1ccsc1NC(=O)c1nc2ccccc2s1 | 0.11 µM | 44 µM | 5.79 µM | 65 µM | 3.32 µM (≈ 1.25 µg/mL) | 6.65 µM (≈ 2.5 µg/mL) | 4.15 µM (≈ 1.56 µg/mL) | 8.33 µM (≈ 3.13 µg/mL) | 2.07 µM (≈ 0.777 µg/mL) | 8.33 µM (≈ 3.13 µg/mL) | 8.33 µM (≈ 3.13 µg/mL) | 3.5 log10CFU/ml
O=C(NC(=O)c1ccsc1NC(=O)c1nc2ccccc2s1)OCC1CC1 | 0.029 µM | 0.069 µM | 0.059 µM | 8.93 µM | 1.57 µM (≈ 0.63 µg/mL) | 1.57 µM (≈ 0.63 µg/mL) | 1.94 µM (≈ 0.779 µg/mL) | 3.88 µM (≈ 1.56 µg/mL) | 0.97 µM (≈ 0.389 µg/mL) | 1.94 µM (≈ 0.779 µg/mL) | 1.94 µM (≈ 0.779 µg/mL) | 3.5 log10CFU/ml
O=C(NC(=O)c1ccsc1NC(=O)c1nc2ccccc2s1)OCC1CCC1 | – | – | – | – | 6.01 µM (≈ 2.5 µg/mL) | – | 1.88 µM (≈ 0.781 µg/mL) | 3.76 µM (≈ 1.56 µg/mL) | 1.88 µM (≈ 0.781 µg/mL) | 3.76 µM (≈ 1.56 µg/mL) | 3.76 µM (≈ 1.56 µg/mL) | –
CC(=O)c1ccc(C(=O)Nc2sccc2C(=O)NC(=O)OCC2CC2)cc1 | – | 3.33 µM | 3.98 µM | – | – | – | – | – | – | – | – | –
COc1nc2ccc(Br)cc2cc1[C@@H](c1ccccc1)[C@@](O)(CCN(C)C)c1cccc2ccccc12 [BEDAQUILINE] | – | – | – | – | – | – | 0.07 µM (≈ 0.0389 µg/mL) | 0.29 µM (≈ 0.161 µg/mL) | 0.14 µM (≈ 0.0778 µg/mL) | 0.58 µM (≈ 0.322 µg/mL) | 0.07 µM (≈ 0.0389 µg/mL) | –
NNC(=O)c1ccncc1 [ISONIAZID] | – | – | – | – | – | – | 18.2 µM (≈ 2.5 µg/mL) | 36.5 µM (≈ 5 µg/mL) | 9.11 µM (≈ 1.25 µg/mL) | 18.2 µM (≈ 2.5 µg/mL) | 36.5 µM (≈ 5 µg/mL) | –
CO[C@H]1/C=C/O[C@@]2(C)Oc3c(C)c(O)c4c(O)c(c(/C=N/N5CCN(C)CC5)c(O)c4c3C2=O)NC(=O)/C(C)=C\C=C\[C@H](C)[C@H](O)[C@@H](C)[C@@H](O)[C@@H](C)[C@H](OC(C)=O)[C@@H]1C [RIFAMPIN] | – | – | – | – | 1.13 µM (≈ 0.93 µg/mL) | 0.35 µM (≈ 0.288 µg/mL) | 1.9 µM (≈ 1.56 µg/mL) | 3.82 µM (≈ 3.14 µg/mL) | 0.95 µM (≈ 0.782 µg/mL) | 1.9 µM (≈ 1.56 µg/mL) | 3.82 µM (≈ 3.14 µg/mL) | –

Reference: ChEMBL document CHEMBL5143519, “Exploring disordered loops in DprE1 provides a functional site to combat drug-resistance in Mycobacterium strains” (Eur J Med Chem, 2022)
